The values below are quoted from earlier work in patent US20210319872A1, “DRUG AND DEVICE COMBINATION PRODUCTS WITH IMPROVED SAFETY AND EFFICACY PROFILES” (priority 2016, published 2021).

The conditions of this data set: in vivo.

Consider `Nc1nnc(-c2cccc(Cl)c2Cl)c(N)n1` [Lamotrigine (Lamictal)], for which the Abdominal pain result is reported as “Gastrointestinal: Abdominal pain (immediate-release, 5% to 10%),”; the Anemia result is recorded as “Hematologic: Anemia (immediate release, less than 0.1%),”; the Angioedema result is recorded as “Other: Angioedema (less than 0.1%), Neuroleptic malignant”; the Ataxia entry is on record as “release, 6%), Ataxia (immediate-release, 2% to 11%), Coordination”. Moreover, the Coordination problem result is “problem (immediate-release, 6% to 7%; extended-release, 3%),”; the Depression is given as 3%), Depression (immediate-release, 4%; extended-release, 3%); the Diarrhea entry is reported as “Diarrhea (immediate-release, 6% to 11%; extended-release, 5%),”; the Dizziness result is on record as “Dizziness (immediate-release, 7% to 54%; extended release, 14%),”. In addition, the Dysmenorrhea result is given as “Reproductive: Dysmenorrhea (immediate-release, 5% to 7%)”; the Headache entry is “Headache (immediate-release, 29%), Insomnia (immediate-release,”; the Indigestion entry is on record as “Indigestion (immediate-release, 2% to 7%), Nausea (immediate-”; the Insomnia is 5% to 10%), Somnolence (immediate-release, 9% to 17%;. The Nausea entry is given as “release, 7% to 25%; extended-release, 7%), Vomiting (immediate-”; the Pain entry is “Other: Pain (immediate-release, 5%)”; the Rash entry was “Dermatologic: Rash (7% to 14%)”; the “Rash, Serious” value is reported as “Serious (0.08% to 0.8%), Stevens-Johnson syndrome (0.08% to”. Also, the Rhinitis entry is given as “Respiratory: Rhinitis (immediate-release, 7% to 14%)” and the Vomiting entry is given as “release, 5% to 20%; extended-release, 6%))”.

Regarding `Cl.O=C1[C@@H]2[C@H]3CC[C@H](C3)[C@@H]2C(=O)N1C[C@@H]1CCCC[C@H]1CN1CCN(c2nsc3ccccc23)CC1` [Latuda], the Akathisia result was “Neurologic: Akathisia (5.6% to 22%), Extrapyramidal disease”; the Anxiety entry is “Psychiatric: Anxiety (4% to 5%)”; the Cerebrovascular accident entry is recorded as “Neurologic: Cerebrovascular accident (0.1% to 1%), Seizure (less”; the Diarrhea result is given as “Gastrointestinal: Diarrhea (3% to 5%), Nausea (10% to 17%),”. Besides, the Nausea result is “Gastrointestinal: Diarrhea (3% to 5%), Nausea (10% to 17%),”; the Orthostatic hypotension entry was “Cardiovascular: Orthostatic hypotension (0.3% to 2.1%), Syncope”; the “Serious side effect, Hematologic” value is on record as “Hematologic: Agranulocytosis”; the “Serious side effect, Other” value is recorded as “Other: Neuroleptic malignant syndrome”. Moreover, the Serum creatinine raised entry is reported as “Renal: Serum creatinine raised (2% to 4%)”, the Suicidal thoughts result is recorded as “Psychiatric: Suicidal thoughts (0.4% to 1.1%)”, the Syncope result is recorded as “(0.1%)” and the Vomiting entry is on record as “Vomiting (2% to 8%)”.

In the case of `CC[C@@H](C(N)=O)N1CCCC1=O` [Levetiracetam (Keppra)], the Asthenia entry is “Neurologic: Asthenia (15%), Dizziness (5% to 9%), Headache”; the Cough entry was “Respiratory: Cough (2% to 9%), Nasopharyngitis (7% to 15%)”; the “Decreased bone mineral density” value is reported as “Musculoskeletal: Decreased bone mineral density (70%), Neck pain”; the “Decreased white blood cell count” value is recorded as “blood cell count (2.4% to 3.2%), Eosinophilia (8.6%), Neutropenia”. Also, the Dizziness entry is reported as “Neurologic: Asthenia (15%), Dizziness (5% to 9%), Headache”; the Eosinophilia result is given as “blood cell count (2.4% to 3.2%), Eosinophilia (8.6%), Neutropenia”; the Fatigue result is given as “Other: Fatigue (10% to 11%)”; the Headache result is given as “(14% to 19%)”. In addition, the Infectious disease entry was “Immunologic: Infectious disease (13%)”; the Nasopharyngitis entry is given as “Respiratory: Cough (2% to 9%), Nasopharyngitis (7% to 15%)”; the Neck pain result was “(2% to 8%)”; the Neutropenia result is on record as “(partial onset seizures, adults, 2.4%), Pancytopenia,”. Moreover, the Somnolence result is listed as “Neurologic: Somnolence (8% to 45%)”; the Suicidal intent result was “Psychiatric: Suicidal intent (0.5%), Suicide”; the Vomiting entry is recorded as “Gastrointestinal: Loss of appetite (3% to 8%), Vomiting (15%)”.

As for `C[C@@H](Cc1ccccc1)NC(=O)[C@@H](N)CCCCN` [Lisdexamfetamine (Vyvanse)], the Anxiety entry was “Psychiatric: Anxiety (Adults, 5% to 6%), Irritability (pediatrics,”; the “Common side effects, listed without incidence” value is on record as “Endocrine metabolic: Decreased body growth, Weight decreased”; the Diarrhea result was “Gastrointestinal: Diarrhea (adults, 7%), Loss of appetite (adults, 8%”; the Irritability is given as 10%). Further, the Rash entry is listed as “Dermatologic: Rash (pediatrics, 3%)”; the Upper abdominal pain was 6%), Upper abdominal pain (pediatrics, 12%), Vomiting; the Vomiting result was “(pediatrics, 9%), Xerostomia (Adults, 26% to 36%; pediatrics, 4%”; the Weight decreased entry is on record as “(pediatrics, 9%)”. Also, the Xerostomia result is “(pediatrics, 9%), Xerostomia (Adults, 26% to 36%; pediatrics, 4%”.

As for `NCCCC[C@H](N[C@@H](CCc1ccccc1)C(=O)O)C(=O)N1CCC[C@H]1C(=O)O` [Lisinopril (Prinivil, Zestril)], the Dizziness result is “Neurologic: Dizziness (12% to 19%), Headache”; the Hyperkalemia entry is “Endocrine metabolic: Hyperkalemia (2.2% to 6%)”; the Hypotension entry was “Cardiovascular: Chest pain, Hypotension (up to 11%), Syncope”; the “Hypotension (Severe)” value was “Cardiovascular: Hypotension (Severe) (9%)”. Further, the Renal impairment entry is reported as “Renal: Acute renal failure, Renal impairment (2.4%)”; the Stevens-Johnson syndrome result is reported as “Dermatologic: Stevens-Johnson syndrome (1% or more), Toxic”; the Syncope result was “(5% to 7%)”.

For the compound `O=C1Nc2ccc(Cl)cc2C(c2ccccc2Cl)=NC1O` (stereo not shown) [Lorazepam (Ativan)], the Acidosis entry is recorded as “Endocrine metabolic: Acidosis (less than 1%)”; the Asthenia entry is “Neurologic: Asthenia (4.2%), Dizziness (6.9%), Sedated (15.9%),”; the “Common side effects, listed without incidence” value is on record as “Psychiatric: Depression”; the Dizziness result was “Neurologic: Asthenia (4.2%), Dizziness (6.9%), Sedated (15.9%),”. The Sedated entry is listed as “Neurologic: Asthenia (4.2%), Dizziness (6.9%), Sedated (15.9%),”; the “Serious side effects, listed without incidence or only as rare” value is listed as “Psychiatric: Delirium”; the Unsteadiness present result was “Unsteadiness present (3.4%)”.

As to `CCCCc1nc(Cl)c(CO)n1Cc1ccc(-c2ccccc2-c2nnn[nH]2)cc1` [Losartan (Cozaar)], the Anemia result is on record as “Hematologic: Anemia (14%)”; the Chest pain entry is recorded as “Cardiovascular: Chest pain (12%), Hypotension (7%)”; the Cough entry was “Respiratory: Cough (10%)”; the Diarrhea entry is “Gastrointestinal: Diarrhea (15%)”. Also, the Dizziness entry is given as “Neurologic: Asthenia, Dizziness (3%)”; the Hyperkalemia entry is “Endocrine metabolic: Hyperkalemia (7%), Hypoglycemia (14%)”; the Hypoglycemia result is “Endocrine metabolic: Hyperkalemia (7%), Hypoglycemia (14%)”; the Hypotension entry was “Cardiovascular: Chest pain (12%), Hypotension (7%)”.

Turning to `CN1CCN(C(=O)O[C@H]2c3nccnc3C(=O)N2c2ccc(Cl)cn2)CC1` [Lunesta (eszopiclone)], the Angioedema result is “Other: Angioedema (rare)”; the Disorder of taste entry is “Gastrointestinal: Disorder of taste (8% to 34%), Vomiting (3%)”; the Dizziness entry was “Neurologic: Dizziness (1% to 7%), Headache (13% to 21%),”; the Headache result is given as “Neurologic: Dizziness (1% to 7%), Headache (13% to 21%),”. Also, the Migraine result is listed as “Migraine (1% or greater)”; the Respiratory tract infection entry is given as “Respiratory: Respiratory tract infection (5% to 10%)”; the Vomiting result was “Gastrointestinal: Disorder of taste (8% to 34%), Vomiting (3%)”.

Regarding `CCC(=O)C(CC(C)N(C)C)(c1ccccc1)c1ccccc1` (stereo not shown) [Methadone], the “Common side effect, Cardiovascular” value is reported as “Cardiovascular: Hypotension”; the “Common side effect, Endocrine metabolic” value is “Endocrine metabolic: Diaphoresis”; the “Common side effect, Gastrointestinal” value is listed as “Gastrointestinal: Constipation, Nausea, Vomiting”; the “Common side effect, Neurologic” value is reported as “Neurologic: Asthenia, Dizziness, Lightheadedness, Sedated”. For the same compound, the “Serious side effect, Endocrine metabolic” value is “Endocrine metabolic: Hypoglycemia”; the “Serious side effect, Other” value is given as “Other: Drug dependence”; the “Serious side effect, Respiratory” value is “Respiratory: Respiratory acidosis, Respiratory arrest, Respiratory”.

Take `COC(=O)C(c1ccccc1)C1CCCCN1` (stereo not shown) [Methylphenidate]: the Aggressive behavior entry was “Psychiatric: Aggressive behavior (Adult, 1.7%), Mania, Psychotic”; the Decrease in appetite entry was “appetite (Adult, 25.3%; pediatric, 2% to 9% or greater), Loss of”; the Diaphoresis entry is on record as “Dermatologic: Diaphoresis (Adult, 5.1%)”; the Dizziness result is given as “Neurologic: Dizziness (Adult, 6.7%; pediatric, 1.9%.), Headache”. Besides, the Headache entry was “(Adult, 22.2%; pediatric, up to 12%), Insomnia (Adult, 12.3%;”; the Irritability is recorded as 3.9%), Irritability (Adult, 5.8%); the Nausea result is reported as “(Adult, 12.8%), Vomiting (2% or greater), Xerostomia (Adult,”; the “Serious side effect, Endocrine metabolic” value was “Endocrine metabolic: Decreased body growth”. The “Serious side effect, Gastrointestinal” value was “Gastrointestinal: Gastrointestinal obstruction, with preexisting”; the “Serious side effect, Hepatic” value is “Hepatic: Abnormal liver function”; the “Serious side effect, Psychiatric” value was “Psychiatric: Aggressive behavior (Adult, 1.7%), Mania, Psychotic”; the “Serious side effect, Reproductive” value is given as “Reproductive: Priapism”. Moreover, the Tachycardia result is listed as “Cardiovascular: Tachycardia (Adult, 4.8%)”; the Vomiting entry is “(Adult, 12.8%), Vomiting (2% or greater), Xerostomia (Adult,”; the Weight decreased result was “Endocrine metabolic: Weight decreased (Adult, 6.5%)”; the Xerostomia is listed as 14%).
